Results on two molecules are retold here after patent US11583547B2, “Chemotherapy drug-sensitizing method, agent composition and use thereof” (FU JEN CATHOLIC UNIVERSITY, priority 2020, dated 2023).

Holding throughout (assay type): cell-based
Series [1] has as its system pancreatic cancer cells. The series can be described thus: qPCR analysis of miR-1976 expression after gemcitabine induction. As to conditions: induction by gemcitabine; FIG. 1B. An excerpt: FIGS. 1A and 1B are microRNA expression charts released in extracellular vesicle and intracellular obtained from micro array analysis and qPCR analysis applied in the chemotherapy drug-sensitizing method in accordance with the preferred embodiment of the present invention.

Series [2] deals with AsPC-1 pancreatic cancer cells. The series can be described thus: western blot of cell apoptosis marker (cleaved PARP) after antagomiR-1976 transfection. As to conditions: AsPC-1, antagomiR-1976 transfection; FIG. 4B. An excerpt:
(§1) FIGS. 4A and 4B are cell apoptosis charts of BxPC-3 and AsPC-1 pancreatic cancer cells with antagomiR-1976 transfection obtained from western blot analysis applied in the chemotherapy drug-sensitizing method in accordance with the preferred embodiment of the present invention. Referring now to FIG. 4A, by way of example, results of pancreatic cancer cell BxPC-3 applied in the chemotherapy drug-sensitizing method in accordance with the present invention are shown. Referring now to FIG. 4B, by way of example, results of pancreatic cancer cell AsPC-1 applied in the chemotherapy drug-sensitizing method in accordance with the present invention are shown.
Background: In western blotting, separated proteins are transferred to a membrane and probed.

The subject of series [3] is BxPC-3 pancreatic cancer cells. The series is described as above. As to conditions: BxPC-3, antagomiR-1976 transfection; FIG. 4A.
Description: as §1

Consider `Nc1ccn([C@@H]2O[C@H](CO)[C@@H](O)C2(F)F)c(=O)n1` [gemcitabine], for which the “amount of miR-1976 in pancreatic cancer cells” value in series [1] is “selectively increased”. For the molecule “5′-ACAGCAAGGAGGGCAGGAGG-3′ (listed as RNA, chemistry not given here) [antagomiR-1976]”, the “amount of pancreatic cancer cell apoptosis marker (cleaved PARP)” value in series [2] and in series [3] was “obviously increased” in each case.
